In patent publication US20240016943A1, “SYNTHETIC DNA BINDING DOMAINS AND USES THEREOF” (The University of Chicago, priority 2020, published 2024):
Starred links: 1 amine or outer side, 2 acyl side, 3 side chain; linkers in the order of their positions; H or OH if unused. Positions of bridges follow the written chain, without caps; N, C: chain ends. Non-standard residues stand in square brackets, D forms with d. Chains are numbered I, II in the order given. X1 = O=C1CC([*:2])C(=O)N1CC(=O)[*:1]; S5 = C=CCCC[C@](C)(N)C(=O)O; Nle = CCCC[C@H](N)C(=O)O; Aib = CC(C)(N)C(=O)O

Key:
[1] = tested on: duplex DNA probes E1, E2, and E3; assay: DNA probe specificity EMSA; assay type: binding; settings: STR69 1 μM, STR640 125 nM; for DNA motif specificity: B-Z 100 nM, probes E1, E2, E3
Method: (§1) For direct DNA binding experiments, STRs were serial diluted (3-fold increments) at 2× concentration in 20 μL of 1× binding buffer (20 mM HEPES pH 8.0, 150 mM NaCl, 5% glycerol, 1 mM EDTA, 2 mM MgCl2, 0.5 mg/mL BSA, 1 mM DTT, 0.05% NP-40). 20 μL of 10 nM IRD700-labeled E-box probe in 1× binding buffer was added and samples were incubated for 30 min at RT followed by 15 min at 4° C. 3.5 μL of each reaction was loaded on a 6% acrylamide, 0.5× TBE gel equilibrated to 4° C. Higher affinity compounds (e.g., STR116 and STR118) were run at 10-fold lower concentration of compound and 0.5 nM final concentration of IRD-labeled oligo. Electrophoresis was carried out for 60 min at 110 V and 4° C. with 0.5× TBE+1 mM MgCl2 running buffer. Gels were pre-run at 110 V for 60 min prior to sample loading. For specificity experiments, 25 nM STR116, 10 nM STR118, or 5 nM MAX, and 5 nM labeled E-box probe were incubated with 0, 5, 25, 125, or 625 nM unlabeled competitor oligo for 30 min at RT in binding buffer. For protein competition experiments, 1 nM TRD-Ebox oligo was added to a mixture of STR (0-1 mM) and 30 nM protein (MAX or MYC:MAX) and incubated for 30 minutes at room temperature in binding buffer. For DNA probe specificity experiments B-Z (100 nM), STR69 (1 μM), and STR640 (125 nM) and MAX (10 nM) were incubated with 1 nM IRD-labeled oligo and 0.01 mg/ml salmon sperm DNA for 30 minutes at RT in binding buffer. All samples were equilibrated to 4° C. for 15 minutes before loading onto 6% gel. Gels were imaged using an Odyssey Li-COR. ImageJ was used to quantify band intensity and fraction bound DNA was calculated by dividing band intensity of bound DNA by the band intensity of the free DNA from a vehicle treated lane. A four-parameter dose-response curve fit to a plot of normalized fraction bound DNA vs. log B-Z concentration yields an IC50 which was reported as the apparent KD.

Trypsin = biological target: T1, Trypsin (Sus scrofa, UniProt P00761); assay: In vitro trypsin stability assay; assay type: in vitro ADME
T1 construct: purchased Thermo-Pierce
Method: Each STR, 30 μM, was dissolved in 330 μL of 20 mM phosphate buffer pH 7.4 in a microcentrifuge tube and heated to 37° C. on a tabletop shaker (500 rpm). 30 μL of the reaction mixture was added to 60 uL of quenching solution (ACN+3% formic acid with 500 nM fmoc-lysine-OH internal standard) for 0 s timepoint sample. Thermo-Pierce MS-Grade Trypsin was added to a final concentration of 0.5 μg/ml and additional 30 μL aliquots were quenched at indicated timepoints. Quenched samples were cooled to 4° C. and centrifuged at 20,000×G for 3 min. […] Intact STR was calculated by normalizing the background subtracted integrated area under the curve for the EIC of (M+4H)/4, ±0.5 mass units, where M is mass and H is hydrogen ion, to the integrated area under the curve for the A280 peak of the internal standard. Fraction intact STR was calculated by dividing the intact STR by the normalized STR signal in the initial 0 s sample. GraphPad Prism was used to plot fraction intact STR vs time, and the proteolytic half-life was derived using a non-linear one-phase decay with the plateau constant set equal to zero.

E-box DNA = assay type: binding
Method: as §1, with “For DNA probe specificity experiments B-Z (100 nM), STR69 (1 μM), and STR640 (125 nM) and MAX (10 nM) were incubated with 1 nM IRD-labeled oligo and 0.01 mg/ml salmon sperm DNA for 30 minutes at RT in binding buffer. All samples were equilibrated to 4° C. for 15 minutes before loading onto 6% gel. Gels were imaged using an Odyssey Li-COR.” left out, “A four-parameter dose-response curve fit to a plot of normalized fraction bound DNA vs. log B-Z concentration yields an IC50 which was reported as the apparent KD.” left out

[2] = Solubility in RPMI media+10% FBS; assay type: physicochemical; settings: RPMI media with 10% FBS, read-out: soluble concentration
E-box probe = assay: Conditioned media binding assay (retained E-box binding by EMSA); assay type: in vitro ADME; settings: HeLa conditioned media, 37° C.
Method: HeLa cells were grown to 90% confluency in a 6 cm plate and the media was collected. 10 μM STR was resuspended in 0.5 mL of the conditioned media and incubated with gentle shaking at 37° C. At 0, 24 and 48 hrs., treatment media (2 μL) was diluted into 48 μL of 1× EMSA binding buffer containing 5 nM E-box probe. DNA binding was measured using an electrophoretic mobility shift assay. Fraction bound to E-box probe was calculated by dividing the band intensity of bound DNA by the sum of the bound DNA+free DNA.

[3] = Circular dichroism spectroscopy; assay type: physicochemical; settings: 25-85° C.
Method: Lyophilized STR samples were resuspended in 20 mM phosphate buffer pH 7.4 and diluted to 10 μM. Circular dichroism spectra were obtained on a Jasco J-170 using a 0.1 cm quartz cuvette with the following settings: wavelength, 260-180 nm; data pitch, 1.0 nm; scan rate, 50 nm min^−1; accumulations, 3; temperature, 25-85° C. with 6° C. increments. Means-Movement smoothing at the lowest setting was applied to the recorded data.

[4] = tested on: E-box oligonucleotide probe; assay: DNA competition (specificity) EMSA with unlabeled competitor oligo; assay type: binding; settings: 25 nM STR116, 10 nM STR118, or 5 nM MAX; 0-625 nM competitor
Method: as §1

T1 sequence (P00761 9-231): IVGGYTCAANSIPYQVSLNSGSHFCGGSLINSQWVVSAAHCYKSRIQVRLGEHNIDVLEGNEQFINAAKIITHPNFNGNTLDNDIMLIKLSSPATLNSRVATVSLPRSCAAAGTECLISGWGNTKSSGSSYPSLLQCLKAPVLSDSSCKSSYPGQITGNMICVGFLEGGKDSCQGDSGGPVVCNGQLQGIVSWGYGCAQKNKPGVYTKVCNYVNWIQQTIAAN

For “Ac-LRLKINSRERKRMHDLNIAMDK(ButMal)LREVMP-NH2 + Ac-SKIATLCLARNYILMLTNSL-NH2 (chain 1 XRLKINSRERKRMHDLNIAMDXLREVMX; chain 2 XKIATLCLARNYILMLTNSX; not fully specified; ButMal ligation; N-acetyl; C-terminal amides; (1)..(1) Xaa is acetyl-L; (22)..(22) Xaa is K(ButMal) (butyrlmaleimide-lysine); (28)..(28) Xaa is P-NH2; (1)..(1) Xaa is acetyl-S; (20)..(20) Xaa is L-NH2) [STR69]”, the DNA motif specificity [1] was “show specificity for the OLIG2- and TFAP4-preferred motifs (target sequences in E3 and E2, respectively)” and the “binding to the E-box motif” value [1] was “minimal binding”.

For “Ac-RREIANSNERRRMQSINAGFQK(GlyMal)LKTLIP-NH2 + Ac-SKAAILCQTAEYIFRLRRKIHTLE-NH2 (chain 1 XREIANSNERRRMQSINAGFQXLKTLIX; chain 2 XKAAILCQTAEYIFRLRRKIHTLX; GlyMal ligation; N-acetyl; C-terminal amides; (1)..(1) Xaa is acetyl-R; (22)..(22) Xaa is K(GlyMal) (glycylmaleimide-lysine); (28)..(28) Xaa is P-NH2; (1)..(1) Xaa is acetyl-S; (24)..(24) Xaa is E-NH2) [STR640]”, the DNA motif specificity [1] was “show specificity for the OLIG2- and TFAP4-preferred motifs (target sequences in E3 and E2, respectively)” and the “binding to the E-box motif” value [1] was “minimal binding”.

With “I: Ac-KRAHHNALERKRRDHIKDSFHKLRDSVP-NH2 / II: Ac-SRAQILCKATEYIQY[Nle]RRKN-NH2 (linker I:22-II:7 via X1) [B-Z]” the “trypsin proteolysis (in words)” value (Trypsin; LC-MS) was “rapidly proteolyzed at several positions” and the “EMSA Fraction bound (sDBD = 500 nM)” value (E-box DNA) was 100%.

In the case of “I: Ac-PRFQSA[S5]DKR[S5]HHNALERKRRDHIKDSFHKLRDSVP-NH2 / II: Ac-SRAQILCKATEYIQRLR[S5]KIR[S5]LE-NH2 (staple I:7-I:11, II:18-II:22; linker I:30-II:7 via X1) [B11-Z80]”, the solubility [2] is reported as over 75 µM.

With “I: Ac-PRFQSA[S5]DKR[S5]HHNALERKRRDHIKDSFHKLRDSVP-NH2 / II: Ac-SRAQILCKATEYIQYLR[S5]KIH[S5]LE-NH2 (staple I:7-I:11, II:18-II:22; linker I:30-II:7 via X1) [STR118, Ac-PRFQSA(S5)DKR(S5)HHNALERKRRDHIKDSFHK(GlyMal)LRDSVP-NH2 + Ac-SRAQILCKATEYIQYLR(S5)KIH(S5)LE-NH2]” the “stability in conditioned media (in words)” value (E-box probe) was “increased stability in conditioned media” and the “thermal stability by temperature-dependent CD” value [3] was “highly thermally stable, with retention of helicity even at 85 °C”.

For “I: Ac-PRFQSA[S5]DKR[S5]HHNALERKRRDHIKDSFHKLRDSVP-NH2 / II: Ac-SR[Aib]QILCQATEYIQSLRR[S5]IHT[S5]E-NH2 (staple I:7-I:11, II:19-II:23; linker I:30-II:7 via X1) [B11-Z70]”, the solubility [2] was over 75 µM.

In the case of “I: Ac-PRFQSA[S5]DKR[S5]HHNALERKRRDHIKDSFHKLRDSVP-NH2 / II: Ac-SR[Aib]QILCQATEYIQ[S5][Nle]RR[S5]LHTHE-NH2 (staple I:7-I:11, II:15-II:19; linker I:30-II:7 via X1) [STR116, Ac-PRFQSA(S5)DKR(S5)HHNALERKRRDHIKDSFHK(GlyMal)LRDSVP-NH2 + Ac-SR(Aib)QILCQATEYIQ(S5)(Nle)RR(S5)LHTHE-NH2]”, the “stability in conditioned media (in words)” value (E-box probe) is reported as “increased stability in conditioned media”.

With “MAX: Human MAX (residues 22-102) protein expressed with N-terminal hexahistidine tag, used in homodimeric form” the “competition by DNA in which the E-box had been replaced entirely” value [4] was “no competition”, the “competition by DNA with mutation of the two central E-box nucleotides (CG to TA)” value [4] was “some competition” and the “competition of E-box probe binding by excess unlabeled E-box oligonucleotide” value [4] was “effectively competed”. The “half-life in trypsin stability assay” value (Trypsin; 0.5 μg/ml trypsin, 37° C.) was 20 s.
